Test systems include EKVX NSCLC; COLO 205 colon; NCI-H23 lung; SF-539 CNS; NCI-H460 lung; 786-0 renal; SF-295 CNS; HL-60(TB) leukemia; NCI/ADR-RES ovarian; BT-549 breast; SR leukemia.
Common to all, as to experiment: NCI tumour cell line growth inhibition, 48 h

Values joined by “and” are separate entries in the source; they are usually repeats but may differ in a detail not shown here. Equal entries are not always repeated.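 All cell lines were grown in 96-well plates and treated with compound for 48 hours. The concentration for 50% growth inhibition is given as GI50. Definition used: TGI = concentration required for complete inhibition of growth.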

`CCOC(=O)c1cc2c([N+](=O)[O-])c(NC(C)=O)ccc2s1`: the TGI in the test on EKVX NSCLC was 98 µM; with COLO 205 colon, more than 100 µM; in the test on NCI-H23 lung, more than 100 µM; in the test with SF-539 CNS it was more than 100 µM; in the test with NCI-H460 lung, more than 100 µM; in the test on 786-0 renal, more than 100 µM. Besides, the TGI in the test with SF-295 CNS, in the test on HL-60(TB) leukemia, in the test with NCI/ADR-RES ovarian and in the test with BT-549 breast was more than 100 µM throughout.
In the case of `CCN(CC)CCn1c2cc3c(cc2c(=O)c2cccnc21)OCCO3`, the TGI in the test with SR leukemia, with EKVX NSCLC, in the test on COLO 205 colon, in the test with NCI-H23 lung, in the test with SF-539 CNS and in the test with 786-0 renal was more than 10 µM in each case. The TGI in the test with SF-295 CNS, with HL-60(TB) leukemia, in the test with NCI/ADR-RES ovarian and in the test with BT-549 breast was more than 10 µM each time.
On to `CCCCCCCCCC[C@@H](O)[C@H]1CC[C@H]([C@H]2CC[C@H]([C@H](O)CCCCCCCCCC[C@@H]3CC(CC(C)=O)C(=O)O3)O2)O1` (stereo not given in full), for which the GI50 with EKVX NSCLC is 1.57 µM; with COLO 205 colon, 6.71 µM; with SF-295 CNS, 2.22 µM; in the test on HL-60(TB) leukemia it was 2.25 µM; with NCI/ADR-RES ovarian, 0.377 µM. Further, the TGI with EKVX NSCLC is more than 50 µM; in the test with COLO 205 colon, more than 29.5 µM; with NCI-H23 lung, more than 50 µM; with SF-539 CNS, more than 50 µM; with NCI-H460 lung it was more than 50 µM; in the test with 786-0 renal, more than 50 µM. For the same compound, the TGI is more than 50 µM with SF-295 CNS; 9.6 µM and > 50 µM with HL-60(TB) leukemia; more than 50 µM in the test with BT-549 breast.
For `COc1ccc2c(c1)c1c(n2CCN2CCOCC2)-c2ccccc2CC1`, the TGI with SR leukemia is 43.7 µM; in the test on COLO 205 colon it was 30.8 µM; in the test on NCI-H23 lung, more than 100 µM; in the test on SF-539 CNS, 71.3 µM; in the test with NCI-H460 lung, 89.2 µM; with 786-0 renal, 92.1 µM. Besides, the TGI with SF-295 CNS, with NCI/ADR-RES ovarian and in the test on BT-549 breast was more than 100 µM each time.
`Cc1c(/C=N\NC(=S)N2CCN(C(=S)N/N=C\c3c(C)n(C)n(-c4ccccc4)c3=O)CC2)c(=O)n(-c2ccccc2)n1C`: the TGI with SR leukemia, in the test with EKVX NSCLC, with COLO 205 colon, with NCI-H23 lung, with SF-539 CNS and in the test on NCI-H460 lung was more than 100 µM each time. In addition, the TGI in the test with 786-0 renal, in the test on SF-295 CNS, in the test on NCI/ADR-RES ovarian and in the test on BT-549 breast was more than 100 µM in each case.
`Cc1ccc(S(=O)(=O)N2CCN3C(=O)c4ccccc4C32c2ccc(F)cc2)cc1` (stereo not given): the TGI in the test on SR leukemia was 52.8 µM; with EKVX NSCLC, more than 100 µM; with COLO 205 colon, more than 100 µM; in the test on NCI-H23 lung it was more than 100 µM; in the test with NCI-H460 lung, more than 100 µM; in the test on 786-0 renal it was more than 100 µM. In addition, the TGI with SF-295 CNS, with NCI/ADR-RES ovarian and in the test on BT-549 breast was more than 100 µM throughout.
For the compound `O=c1c2c3ccccc3[nH]c2c2cccc3c2n1CCC3`, the TGI was 67.5 µM in the test with SR leukemia; 95.1 µM in the test with EKVX NSCLC; more than 100 µM in the test with COLO 205 colon; more than 100 µM in the test on NCI-H23 lung; more than 100 µM with SF-539 CNS; more than 100 µM in the test on NCI-H460 lung. The TGI is more than 100 µM with 786-0 renal, more than 100 µM in the test on SF-295 CNS, more than 100 µM with NCI/ADR-RES ovarian and 91 µM in the test on BT-549 breast.
For `Cc1[nH]c(/C=C2\C(=O)Nc3ccc(S(=O)(=O)Cc4c(Cl)cccc4Cl)cc32)c(C)c1C(=O)N1CCC[C@@H]1CN1CCCC1`, the GI50 in the test with COLO 205 colon is 9.15 µM; in the test with NCI-H23 lung it was 4.38 µM; with SF-539 CNS, 1.51 µM; in the test with SF-295 CNS, 1.19 µM; with HL-60(TB) leukemia it was 1.97 µM; in the test with NCI/ADR-RES ovarian it was 2.96 µM. Moreover, the GI50 in the test with BT-549 breast was 14.1 µM. In addition, the TGI with COLO 205 colon was 22.6 µM; in the test on NCI-H23 lung, 12.3 µM; in the test with SF-539 CNS, 2.89 µM; with SF-295 CNS, 2.57 µM; in the test on HL-60(TB) leukemia, 5.49 µM; in the test on NCI/ADR-RES ovarian it was more than 24.4 µM. The same compound came in with a TGI in the test with BT-549 breast of 83.1 µM.
For the compound `Cc1ccc2c(c1C)CC1(Cc3c(ccc4c3CCC4)C1=O)C2=O` (stereo not given), the TGI with EKVX NSCLC, with COLO 205 colon, with NCI-H23 lung, in the test with SF-539 CNS, in the test with NCI-H460 lung and with 786-0 renal was more than 100 µM throughout. The TGI in the test on SF-295 CNS, in the test on HL-60(TB) leukemia, in the test on NCI/ADR-RES ovarian and in the test on BT-549 breast was more than 100 µM throughout.
As to `c1cc(-c2cnc(-c3ccc4c(c3)CCCO4)o2)ccn1`, the TGI amounted to 13.4 µM in the test on SR leukemia; 40.5 µM in the test on EKVX NSCLC; 33.1 µM in the test with COLO 205 colon; 30.2 µM in the test with NCI-H23 lung; 21.8 µM with SF-539 CNS; 53 µM with 786-0 renal. Further, the TGI in the test with SF-295 CNS amounted to 37.4 µM; with HL-60(TB) leukemia, 21.9 µM; in the test with NCI/ADR-RES ovarian, 41.3 µM; with BT-549 breast, 29.1 µM.
Take `O=c1[nH]c2nc3ccccc3c(=O)n2/c1=C/c1ccc(O)cc1`: the TGI was more than 100 µM with SR leukemia; more than 100 µM in the test on EKVX NSCLC; more than 100 µM with COLO 205 colon; more than 100 µM with NCI-H23 lung; 46.6 µM with SF-539 CNS; more than 100 µM in the test with 786-0 renal. For the same compound, the TGI in the test on SF-295 CNS, with HL-60(TB) leukemia, in the test with NCI/ADR-RES ovarian and in the test on BT-549 breast was more than 100 µM throughout.
As for `O=C(NS(=O)(=O)Nc1ccc(Cl)cc1)OCc1ccc(Cl)cc1Cl`, the TGI with SR leukemia was more than 100 µM; in the test with COLO 205 colon, 32.3 µM; with NCI-H23 lung, 52.3 µM; in the test on SF-539 CNS, 40.6 µM; in the test with NCI-H460 lung it was 29.9 µM; in the test with 786-0 renal, more than 100 µM. For the same compound, the TGI came to 42.7 µM in the test with SF-295 CNS, 87.2 µM with HL-60(TB) leukemia, 49.9 µM in the test with NCI/ADR-RES ovarian and 82.3 µM with BT-549 breast.
For `O=C1CC(C(O)CO)CC(=O)N1` (stereo not given), the TGI in the test with SR leukemia, in the test with NCI-H23 lung, in the test on SF-539 CNS, with NCI-H460 lung, in the test with 786-0 renal and in the test with SF-295 CNS was more than 100 µM each time. Also, the TGI in the test on HL-60(TB) leukemia, in the test on NCI/ADR-RES ovarian and in the test on BT-549 breast was more than 100 µM in each case.

The values above are taken from PubChem BioAssay (NCI).
